Counter-ions that a name gives are not always drawn.

Broadly, the melting point is the temperature of the solid-liquid transition. `CCCCN(C/C=C/c1ccc(C(=O)c2c(C)oc3ccc(C(=O)OC(C)C)cc23)cc1)CCCC` (as salt: hydrochloride) [Example 50]: the melting point lay within 189 to 191 °C.
Under `CCCCc1oc2ccc(C(=O)OC)cc2c1C(=O)c1ccc(C#CCN2CCCCC2)cc1` (as salt: hydrochloride) [Example 34] stands 153 to 154 °C; under `CCCCN(C/C=C/c1ccc(C(=O)c2c(CC(C)C)oc3ccc(C(=O)OC(C)C)cc23)cc1)CCCC` (as salt: hydrochloride) [Example 40], 147 to 150 °C.
Turning to `CCCCc1oc2ccc(C(=O)OC(C)C)cc2c1C(=O)c1ccc(/C=C/CN(CCCC)CCCC)cc1` (as salt: oxalate) [Example 39], the melting point is 112 °C.
On to `CCCCc1oc2cc(C(=O)OC(C)C)ccc2c1C(=O)c1ccc(/C=C/CN(CCCC)CCCC)cc1` (as salt: hydrochloride) [Example 38], for which the melting point was 110 to 114 °C.
Under `CCCCc1oc2c(C(=O)OC(C)C)cccc2c1C(=O)c1ccc(/C=C/CN(CCCC)CCCC)cc1` (as salt: oxalate) [Example 52] stands 120 °C; under `CCCCNCC#Cc1ccc(C(=O)c2c(CCCC)oc3ccc(C(=O)OC(C)C)cc23)cc1` (as salt: hydrochloride) [Example 36], 166 to 167 °C; under `CCCCN(C/C=C/c1ccc(C(=O)c2c(C3CCCCC3)oc3ccc(C(=O)OC(C)C)cc23)cc1)CCCC` (as salt: hydrochloride) [Example 43], 171 to 173 °C.
With `CCCCc1oc2ccc(C(=O)OC(C)C)cc2c1C(=O)c1cc(Cl)c(/C=C/CN(CCCC)CCCC)c(Cl)c1` (as salt: oxalate) [Example 51] the figure was 91 to 93 °C; with `CCCCc1oc2cc(C)c(C(=O)OC(C)C)cc2c1C(=O)c1ccc(/C=C\CN(CCCC)CCCC)cc1.Cl`, 129 °C; with `CCCCc1oc2ccc(C(=O)OC(C)C)cc2c1C(=O)c1cc(C)c(/C=C/CN(CCCC)CCCC)c(C)c1` (as salt: oxalate) [Example 44], 110 to 115 °C.

The values above are taken from patent publication US6946483B2, “Aminoalkenylbenzoyl-benzofuran or benzothiophene, method for preparing same and compositions containing same” (Sanofi-Aventis, priority 2000, dated 2005).
